Results: patent US4443436A, “C-20-Modified macrolide derivatives of the macrolide antibiotics tylosin, desmycosin, macrocin, and lactenocin” (Eli Lilly and Company, priority 1982, dated 1984)
≈ marks a conversion by molar mass, not a printed value. Where “and” joins values, the source holds several entries; their conditions need not be identical. Equal values may be shown once. Read-outs that look alike come from different tables or passages of the source.

Legend:
[1] = test system: Staphylococcus aureus X1.1; experiment: MIC, standard agar-dilution assay, Staphylococcus aureus X1.1; assay type: cell-based
[2] = test system: Staphylococcus aureus V41; experiment: MIC, standard agar-dilution assay, Staphylococcus aureus V41; assay type: cell-based
[3] = test system: Staphylococcus aureus X400; experiment: MIC, standard agar-dilution assay, Staphylococcus aureus X400; assay type: cell-based
[4] = test system: Staphylococcus aureus S13E; experiment: MIC, standard agar-dilution assay, Staphylococcus aureus S13E; assay type: cell-based; conditions: Staphylococcus aureus, S13E
[5] = test system: Staphylococcus epidermidis EPI1; experiment: MIC, standard agar-dilution assay, Staphylococcus epidermidis EPI1; assay type: cell-based
[6] = test system: Staphylococcus epidermidis EPI2; experiment: MIC, standard agar-dilution assay, Staphylococcus epidermidis EPI2; assay type: cell-based; conditions: Staphylococcus epidermidis EPI2; agar dilution; read-out: MIC
[7] = test system: Streptococcus pyogenes C203; experiment: MIC, standard agar-dilution assay, Streptococcus pyogenes C203; assay type: cell-based
[8] = test system: Streptococcus pneumoniae Park I; experiment: microbe, parasite or virus in culture; assay type: cell-based
[9] = test system: Streptococcus Group D X66; experiment: MIC, standard agar-dilution assay, Streptococcus Group D X66; assay type: cell-based
Streptococcus Group 9960 = experiment: MIC, standard agar-dilution assay, Streptococcus Group 9960; assay type: cell-based; conditions: GROUP9960
[10] = test system: Haemophilus influenzae Holt; experiment: MIC, standard agar-dilution assay, Haemophilus influenzae Holt; assay type: cell-based
[11] = test system: Haemophilus influenzae R252; experiment: MIC, standard agar-dilution assay, Haemophilus influenzae R252; assay type: cell-based
Staphylococcus aureus = experiment: MIC, broth-dilution microtiter test, Staphylococcus aureus; assay type: cell-based; conditions: broth-dilution microtiter, read-out: MIC
Excerpt: (§1) The MIC's in Table X were obtained using conventional broth-dilution microtiter tests.

Streptococcus bovis 80 = experiment: MIC, broth-dilution microtiter test, Streptococcus bovis 80; assay type: cell-based; conditions: Streptococcus equinus
Excerpt: as §1

[12] = test system: Pasteurella multocida 17E; experiment: MIC, broth-dilution microtiter test, Pasteurella multocida 17E; assay type: cell-based
Excerpt: as §1

[13] = test system: Pasteurella multocida 60A; experiment: MIC, broth-dilution microtiter test, Pasteurella multocida 60A; assay type: cell-based
Excerpt: as §1

[14] = test system: Pasteurella hemolytica 22C; experiment: MIC, broth-dilution microtiter test, Pasteurella hemolytica 22C; assay type: cell-based
Excerpt: as §1

Mycoplasma gallisepticum = experiment: MIC, broth-dilution microtiter test, Mycoplasma gallisepticum; assay type: cell-based; conditions: Mycoplasmoides gallisepticum; Mycoplasma gallisepticum; broth-dilution microtiter; read-out: MIC
Excerpt: as §1

Mycoplasma synoviae = experiment: MIC, broth-dilution microtiter test, Mycoplasma synoviae; assay type: cell-based; conditions: Mycoplasmopsis synoviae; Mycoplasma synoviae; broth-dilution microtiter; read-out: MIC
Excerpt: as §1

Mycoplasma hyorhinis = experiment: MIC, broth-dilution microtiter test, Mycoplasma hyorhinis; assay type: cell-based; conditions: Mycoplasma
Excerpt: as §1

Mycoplasma hyopneumoniae = experiment: MIC, broth-dilution microtiter test, Mycoplasma hyopneumoniae; assay type: cell-based; conditions: Mesomycoplasma hyopneumoniae; Mycoplasma hyopneumoniae; broth-dilution microtiter; read-out: MIC
Excerpt: as §1

[15] = test system: Streptococcus pyogenes C203; experiment: In vivo protection of mice experimentally infected with S. pyogenes C203; conditions: Streptococcus pyogenes, mice, doses given 1 and 4 hours post-infection
Procedure: The C-20 modified derivatives of this invention have shown in vivo antimicrobial activity against experimentally-induced infections in laboratory animals. When two doses of test compound were administered to mice experimentally infected with S. pyogenes C203, the activity observed was measured as an ED50 value [effective dose in mg/kg to protect 50% of the test animals: see Warren Wick, et al., J. Bacteriol. 81, 233-235 (1961)].

Pasteurella multocida [16] = experiment: Subcutaneous treatment of Pasteurella multocida-infected chicks; assay type: in vivo, one-day-old chicks
Procedure: (§2) Many of the C-20 modified derivatives of this invention have also shown in vivo antibacterial activity against infections induced by gram-negative bacteria. Tables XII and XIII summarize the results of tests in which illustrative compounds were evaluated against Pasteurella infection in one-day-old chicks. The compounds were administered parenterally or orally after challenge of the chicks with Pasteurella multocida (0.1 ml of a 10^-4 dilution of a twenty-hour tryptose broth culture of an avian P. multocida given subcutaneously). In these tests, unless indicated otherwise, all non-medicated infected chicks died within 24 hours of Pasteurella challenge. In the tests summarized in Table XII the compounds were administered by subcutaneous injection at a dosage of 30 mg/kg, 1 and 4 hours post-challenge of the chicks with P. multocida. In the test summarized in Table XIII the compounds were administered by gavage at 1 and 5 hours post-challenge of the chicks with P. multocida.

Pasteurella multocida [17] = experiment: Oral (gavage) treatment of Pasteurella multocida-infected chicks; assay type: in vivo, one-day-old chicks
Procedure: as §2

[18] = Staphylococcus epidermidis, EPI1
[19] = C203, sc, subcutaneous, read-out: ED50, Subcutaneous
[20] = C203, oral, read-out: ED50, Oral
[21] = Staphylococcus aureus V41, penicillin-resistant strain, agar dilution, read-out: MIC
[22] = Staphylococcus aureus X400, methicillin-resistant strain, agar dilution, read-out: MIC
[23] = Streptococcus Group D X66, agar dilution, read-out: MIC
[24] = Haemophilus influenzae R252, ampicillin-resistant strain, read-out: MIC
[25] = Pasteurella multocida 17E, bovine isolate, broth-dilution microtiter, read-out: MIC
[26] = Pasteurella multocida 60A, avian isolate, broth-dilution microtiter, read-out: MIC
[27] = Pasteurella hemolytica 22C, broth-dilution microtiter, read-out: MIC
[28] = 30 mg/kg × 2, 1 and 4 hours post-challenge

Structure (SMILES) | MIC ([1]; Staphylococcus aureus, X1.1) [µg/mL] | MIC [4] [µg/mL] | MIC [5, 18] [µg/mL] | MIC [6] [µg/mL] | MIC ([7]; Streptococcus pyogenes, C203) [µg/mL] | MIC ([8]; Streptococcus pneumoniae) [µg/mL] | MIC ([10]; Haemophilus influenzae) [µg/mL] | MIC (Staphylococcus aureus) [µg/mL] | MIC (Streptococcus bovis 80; 80) [µg/mL] | MIC (Mycoplasma gallisepticum) [µg/mL] | MIC (Mycoplasma synoviae) [µg/mL] | MIC (Mycoplasma hyorhinis) [µg/mL] | MIC (Mycoplasma hyopneumoniae) [µg/mL] | ED50 [15, 19] [mg/kg] | ED50 [15, 20] [mg/kg] | MIC [2, 21] [µg/mL] | MIC [3, 22] [µg/mL] | MIC [9, 23] [µg/mL] | MIC [11, 24] [µg/mL] | MIC [12, 25] [µg/mL] | other results
CCC1OC(=O)CC(O)C(C)C(OC2OC(C)C(O)C(N(C)C)C2O)C(CC2SCCN2Cc2ccccc2)CC(C)C(=O)C=CC(C)=CC1COC1OC(C)C(O)C(OC)C1OC (stereo not shown) [Compound 77] | 0.25 (≈ 0.271 µM) | 0.25 (≈ 0.271 µM) | 0.25 (≈ 0.271 µM) | 0.12 (≈ 0.13 µM) | 0.25 (≈ 0.271 µM) | 1 (≈ 1.09 µM) | 16 (≈ 17.4 µM) | 0.39 (≈ 0.423 µM) | 3.12 (≈ 3.39 µM) | 0.09 (≈ 0.0977 µM) | 0.19 (≈ 0.206 µM) | 6.25 (≈ 6.78 µM) | 0.19 (≈ 0.206 µM) | > 10 | 19 |  |  |  |  |  | MIC ([2]; Staphylococcus aureus, V41): 0.25 µg/mL (≈ 0.271 µM); MIC ([3]; Staphylococcus aureus, X400): 0.25 µg/mL (≈ 0.271 µM); MIC [9]: 4 µg/mL (≈ 4.34 µM); MIC (Streptococcus Group 9960): 4 µg/mL (≈ 4.34 µM); MIC ([11]; Haemophilus influenzae, R252): 16 µg/mL (≈ 17.4 µM); MIC ([12]; Pasteurella multocida, 17E): 12.5 µg/mL (≈ 13.6 µM); MIC ([13]; Pasteurella multocida, 60A): 12.5 µg/mL (≈ 13.6 µM); MIC ([14]; Pasteurella, 22C): 12.5 µg/mL (≈ 13.6 µM); Number of Deaths/Number Treated (Pasteurella multocida [16]; 30 mg/kg × 2, 8/10 and 9/10 of two groups of infected nonmedicated chicks died): 8/10; Number of Deaths/Number tested (Pasteurella multocida [17]; 2.0 g/gal equivalent, 11/20 infected nonmedicated chicks died in this test): 4/10
CCC1OC(=O)CC(O)C(C)C(OC2OC(C)C(O)C(N(C)C)C2O)C(CCCl)CC(C)C(=O)C=CC(C)=CC1COC1OC(C)C(O)C(OC)C1OC (stereo not shown) [Compound 21, 20-DH-DO-20-Chlorodesmycosin] | 0.25 (≈ 0.315 µM) | 0.12 (≈ 0.151 µM) |  |  | 0.25 (≈ 0.315 µM) |  | 16 (≈ 20.2 µM) | 0.78 (≈ 0.984 µM) | 3.12 (≈ 3.94 µM) | 0.39 (≈ 0.492 µM) |  | 50 (≈ 63.1 µM) | 12.5 (≈ 15.8 µM) | 0.7 | 6 | 0.12 (≈ 0.151 µM) | 0.5 (≈ 0.631 µM) | 8 (≈ 10.1 µM) | 16 (≈ 20.2 µM) | 12.5 (≈ 15.8 µM) | MIC ([5]; Staphylococcus epidermidis EPI1, agar dilution, read-out: MIC): 0.12 µg/mL (≈ 0.151 µM); MIC ([8]; Streptococcus pneumoniae Park I, agar dilution, read-out: MIC): 1 µg/mL (≈ 1.26 µM); MIC (Streptococcus Group 9960; Streptococcus Group 9960, agar dilution, read-out: MIC): 8 µg/mL (≈ 10.1 µM); MIC [13, 26]: 6.25 µg/mL (≈ 7.89 µM); MIC [14, 27]: 12.5 µg/mL (≈ 15.8 µM); Number of Deaths/Number Treated (Pasteurella multocida [16]; [28]): 9/10; Number of Deaths/Number Treated (Pasteurella multocida [16]; 30 mg/kg × 2, 8/10 infected nonmedicated chicks died in this test): 7/10; Number of Deaths/Number tested (Pasteurella multocida [17]; 1.0 g/gal equivalent): 3/9; Number of Deaths/Number tested (Pasteurella multocida [17]; 2.0 g/gal equivalent): 0/9 and 0/10; Number of Deaths/Number tested (Pasteurella multocida [17]; 2.0 g/gal equivalent, 13/20 infected nonmedicated chicks died in this test): 2/10
CCC1OC(=O)CC(O)C(C)C(OC2OC(C)C(O)C(N(C)C)C2O)C(CCOC(C)=O)CC(C)C(=O)C=CC(C)=CC1COC1OC(C)C(O)C(OC)C1OC (stereo not shown) [Compound 29, 20-DH-20-O-Acetyldesmycosin] |  | 0.25 (≈ 0.306 µM) | 0.25 (≈ 0.306 µM) | 0.12 (≈ 0.147 µM) |  | 0.25 (≈ 0.306 µM) |  | 0.78 (≈ 0.956 µM) |  | 0.39 (≈ 0.478 µM) | 1.56 (≈ 1.91 µM) | 50 (≈ 61.3 µM) | 12.5 (≈ 15.3 µM) | 3.4 | 36 | 0.5 (≈ 0.613 µM) | 0.5 (≈ 0.613 µM) | 8 (≈ 9.8 µM) | 16 (≈ 19.6 µM) | 12.5 (≈ 15.3 µM) | MIC ([1]; Staphylococcus aureus X1.1, agar dilution, read-out: MIC): 0.5 µg/mL (≈ 0.613 µM); MIC ([7]; Streptococcus pyogenes C203, agar dilution, read-out: MIC): 2 µg/mL (≈ 2.45 µM); MIC ([10]; Haemophilus influenzae Holt, ampicillin-sensitive strain, read-out: MIC): 16 µg/mL (≈ 19.6 µM); MIC (Streptococcus bovis 80; Streptococcus bovis 80, broth-dilution microtiter, read-out: MIC): 0.78 µg/mL (≈ 0.956 µM); MIC [13, 26]: 25 µg/mL (≈ 30.6 µM); MIC [14, 27]: 25 µg/mL (≈ 30.6 µM); Number of Deaths/Number Treated (Pasteurella multocida [16]; [28]): 5/10; Number of Deaths/Number tested (Pasteurella multocida [17]; 0.5 g/gal equivalent): 0/10; Number of Deaths/Number tested (Pasteurella multocida [17]; 1.0 g/gal equivalent): 3/10
